# Data reported in patent US20240050406A1, “COMPOSITION COMPRISING OXIRACETAM FOR PREVENTING OR TREATING MUSCULAR DISEASE” (KSB TUGEN INC., priority 2021, published 2024).
# Legend:
# [1] = system: dexamethasone-induced muscular atrophy animal model; assay: Dexamethasone-induced muscular atrophy animal model (Experimental Example 1); format: in vivo, ICR mice; conditions: compared to dexamethasone-treated group (excipient)
# Text: 1-1. Preparation of experimental animals and samples For an experimental group in the present invention, oxiracetam
# having a structure of Formula 1 was purchased from Tokyo Chemical Industry (Japan; Product No. 00398, CAS RN:62613-82-5, purity: 96%) and used. As experimental animals, 7-week-old male ICR mice were
# (§1) purchased and used. Until the day of the experiment, general feed (EEGJ30060: Cargill Agri Purina, Seongnam, Korea) and water were sufficiently supplied to the experimental animals, and the animals were acclimated for 1 week under an environment of a temperature of 23±2° C., a humidity of 55±10%, and a light-dark cycle of 12 hours-12 hours and used in the experiment.
# After the acclimation period for the experimental animals, to create a muscular atrophy model, the mice were randomly divided into groups of 10 animals, such as a normal group (n=10), a dexamethasone-treated group (n=10), and an oxiracetam-administered group (n=10). The groups except for the normal group were intraperitoneally injected with dexamethasone at a dose of 10 mg/kg from day 7 to day 21 for 14 days. In the case of the oxiracetam-administered group, 7 days before the intraperitoneal administration of dexamethasone, oxiracetam was orally administered using a Zonde needle at a dose of 30 mg/kg/day once a day for 21 days. During the same period, the normal group was administered no drug, and 100 μL of normal saline was orally administered at a time.
# (§2) The lean body mass for the gastrocnemius muscle (GS) and tibialis anterior (TA) for each group was measured every 7 days. Specifically, animal models of each group were anesthetized using 3% isoflurane, fixed to a photographing bed, and then photographed. The respiration rates and temperatures of the animal models during photographing were measured using an animal monitoring system (SA Instruments, USA).
# (§3) The whole body of the animal model was photographed through dual energy X-ray absorptiometry (DEXA) using iNSiGHT VET DXA (Osteosys, KR), and the lean body mass of each of the gastrocnemius muscle (GS) and the tibialis anterior (TA) was measured and calculated from the two-dimensional images of the gastrocnemius muscle (GS) and the tibialis anterior (TA) by a program using the region of interest (ROI).
# To measure grip strength, a grip strength test was performed. […] The grip strength was measured once every 2 days and 11 times for each mouse.
# Tibialis anterior diameters (T1) were measured from two-dimensional images captured by dual-energy X-ray absorptiometry (DEXA) for each group and compared.
# First, the experimental animals in each group were acclimatized to a treadmill machine twice before measurement (1st round: inclination 10°, 10 minutes at 5 m/min and 10 minutes at 10 m/min; 2n d round: inclination 10°, 5 minutes at 5 m/min and 15 minutes at 10 m/min). On the day of the experiment, the experimental animals were allowed to run for 20 minutes at an initial speed of 10 m/min at an inclination of 10°, and then the speed was increased by 2 m/min every 2 minutes, and then the running distance and time were measured with the end point when the experimental animal stayed for 10 seconds without running.
# (§4) Statistical processing was performed using GraphPad Prism (GraphPad Software Inc., San Diego, CA, USA). The results of each repeated experiment were expressed as mean±standard error of mean, and analyzed using the analysis of variance (Tukey's test), and statistical significance was acknowledged when the P-value was 0.05 or less.
# [2] = system: model of sarcopenia caused by aging; assay: Aging animal model, 24-month-old mice, oxiracetam per concentration (Experimental Example 3); format: in vivo, C57BL/6J mice
# Text: For an experimental group in the present invention, oxiracetam having a structure of Formula 1 was purchased from Tokyo Chemical Industry (Japan; Product No. 00398, CAS RN:62613-82-5, purity: 96%) and used.
# as §1, with “As a model of sarcopenia caused by aging, 24-month-old male C57BL/6J mice were” for “purchased and”
# The animals were randomly divided into groups of 10 animals, such as a control (vehicle, n=10), and 42, 83, 167, 333 mg/kg/day oxiracetam-administered groups (n=10 per concentration). To the oxiracetam-administered group, oxiracetam was orally administered using a Zonde needle for 93 days once a day at a dose of 42, 83, 167, or 333 mg/kg/day. During the same period, no drug was administered to the control group, and 100 μL of normal saline was orally administered at one time.
# To measure grip strength, a grip strength test was performed. The maximum force presented when the forelimbs of an animal model of each group could no longer hold the rod by pulling the tail horizontally while holding the tail of the animal model and holding the rod of a device with both front paws was considered to be grip strength (N). The grip strength was measured once every 3 days, and after repeating five measurements at one time, the average value was shown. Grip strength adaptation training was performed at least three times before drug administration.
# as §2, §3, §4
# [3] = oxiracetam 30 mg/kg/day oral 21 days + dexamethasone, DEXA
# [4] = Oxi 42, 83, 167 and 333 mg/kg/day, DEXA every 7 days, compared to control
# [5] = Oxi 333 group (333 mg/kg/day), among dose groups
smiles,measurement,setting,value
"NC(=O)CN1CC(O)CC1=O (racemic) [oxiracetam, (RS)-2-(4-hydroxy-2-oxopyrrolidin-1-yl)acetamide]",tibialis anterior (TA) diameter (T1),"[1]; oxiracetam 30 mg/kg/day oral 21 days + dexamethasone 10 mg/kg i.p. day 7-21, DEXA",significantly increased
same,lean body mass of the gastrocnemius muscle (GS),[1]; [3],the decrease was significantly suppressed
same,lean body mass of the tibialis anterior (TA),[1]; [3],the decrease was significantly suppressed
same,grip strength,[1]; oxiracetam 30 mg/kg/day oral 21 days + dexamethasone,significantly increased
same,exercise stress test (treadmill): athletic ability,[1]; oxiracetam 30 mg/kg/day oral + dexamethasone,significant improvement
same,dose dependence of the effect on grip strength,[2]; 42-333 mg/kg/day oral 93 days,increases in a concentration-dependent manner
same,change in grip strength (decrease in grip strength),"[2]; Oxi 42, 83, 167 and 333 mg/kg/day oral 93 days, versus control (vehicle)",significantly inhibited and rather increased
same,lean body mass of the gastrocnemius muscle (GS),[2]; [4],rather significantly increased
same,lean body mass of the tibialis anterior (TA),[2]; [4],rather significantly increased
same,lean body mass of the gastrocnemius muscle (GS),[2]; [5],greatest increase
same,lean body mass of the tibialis anterior (TA),[2]; [5],greatest increase
